Assay results taken from patent US20250303354A1, “ACIDIC GAS REMOVAL AGENT, ACIDIC GAS REMOVAL METHOD, ACIDIC GAS ABSORPTION DEVICE, AND CLEANING DEVICE” (AGC Inc., priority 2022, published 2025).

Experiment: Amounts of carbon dioxide absorption in test liquid (physical absorption, pressure-drop method)
Type: physicochemical
Conditions: 30° C.; for Amount of carbon dioxide absorption, not in coexistence of water a: 100% by mass of compound as test liquid; for Amount of carbon dioxide absorption, not in coexistence of water a / Amount of carbon dioxide absorption, in coexistence of water b: calculated via Henry's constant for P 3.0 MPa; for Amount of carbon dioxide absorption, in coexistence of water b: mixture of 90% by mass of compound and 10% by mass of water; for Carbon dioxide absorption ratio b/a: ratio of absorption in coexistence of water to not in coexistence of water, 3 MPa
Description: A 300-mL pressure-resistant container (A) connected to a carbon dioxide cylinder by piping, and a 150-mL pressure-resistant container were prepared, and amounts of carbon dioxide absorption were determined through a procedure of (i) to (iv) shown below. A regulator and a pressure gage were connected between the carbon dioxide cylinder and pressure-resistant container (A), and pressure-resistant container (A) and pressure-resistant container (B) were soaked in a water bath.
(i) The temperature of the water bath was set to 30° C., and pressure-resistant container (B) containing 50 mL of a test liquid was degassed under reduced pressure with a vacuum pump.
(ii) Pressure-resistant container (A) was filled with carbon dioxide depressurized to 0.20 MPa through the regulator, and the pressure at that time was measured. Thereafter, pressure-resistant container (A) and pressure-resistant container (B) were connected together, and the pressure after 1 hour was measured. Assuming that carbon dioxide in an amount corresponding to the reduction of pressure was absorbed in the test liquid, the amount in moles of adsorbed carbon dioxide per unit mass (mol/kg) was calculated.
(iii) The same operation as (ii) was performed at 0.35 MPa, 0.50 MPa, 0.60 MPa, and 0.80 MPa, and the Henry's constant, Hb (MPa·kg/mol), which indicates the pressure dependence of the amount in moles of adsorbed carbon dioxide (mol/kg), was calculated.
(iv) The amount of carbon dioxide absorption per unit mass of the test liquid (g/kg) was calculated from the following expression:
n: molar mass of carbon dioxide=44 (g/mol).
In the calculation, P (MPa) was 3.0 MPa, which is a representative condition for using physical absorption liquid.
For the case that an acidic gas removing agent (100% by mass of compound) was used as a test liquid (not in coexistence of water) and the case that a mixture of 90% by mass of the acidic gas removing agent (compound) and 10% by mass of water was used as a test liquid (in the coexistence of water), the amounts of carbon dioxide absorption in the test liquids were determined.
The carbon dioxide absorption ratio is the ratio (b/a) of the amount of carbon dioxide absorption per unit mass of a mixture of 90% by mass of an acidic gas removing agent and 10% by mass of water, b (g/kg), to the amount of carbon dioxide absorption per unit mass of the acidic gas removing agent, a (g/kg).

| SMILES | Amount of carbon dioxide absorption, not in coexistence of water a | Amount of carbon dioxide absorption, in coexistence of water b | Carbon dioxide absorption ratio b/a |
| --- | --- | --- | --- |
| CCCCOCC(C)OCC(C)OCC(C)OCC(C)O (stereo not drawn) [A-1] | 132 g/kg | 112 g/kg | 0.85 |
| CCCCOCCOCC(C)OCC(C)OCC(C)O (stereo not drawn) [A-2] | 128 g/kg | 98 g/kg | 0.77 |
| CC(O)COC(C)COC(C)COCC(C)OCC(C)OCC(C)OCC(C)O (stereo not drawn) [A-8] | 104 g/kg | 79 g/kg | 0.76 |
| CCCCOCC(C)OCC(C)OCC(C)OCC(C)OCC(C)OCC(C)OCC(C)OC (stereo not drawn) [B-1] | 134 g/kg | 120 g/kg | 0.89 |
| CCCCOCCOCC(C)OCC(C)OCC(C)OCC(C)OCC(C)OC (stereo not drawn) [B-2] | 157 g/kg | 140 g/kg | 0.89 |
| CCCCOCCOCCOCC(C)OCC(C)OCC(C)OCC(C)OCC(C)OC (stereo not drawn) [B-3] | 149 g/kg | 134 g/kg | 0.90 |
| COC(C)COC(C)COC(C)COC(C)COC(C)COC(C)COCCOC(C)(C)C (stereo not drawn) [B-4] | 142 g/kg | 128 g/kg | 0.90 |
| C=CCOCC(C)OCC(C)OCC(C)OCC(C)OCC(C)OCC(C)OCC(C)OC (stereo not drawn) [B-5] | 129 g/kg | 120 g/kg | 0.93 |
| COC(C)COC(C)COC(C)COCC(C)OCC(C)OCC(C)OCC(C)OC (stereo not drawn) [B-6] | 144 g/kg | 122 g/kg | 0.85 |
| COC(C)COC(C)COC(C)COC(C)COC(C)COC(C)COCCOCC(C)C (stereo not drawn) [B-7] | 140 g/kg | 139 g/kg | 0.99 |
| CC(O)COC(C)COC(C)CO (stereo not drawn) [C-2, tripropylene glycol, reference compound] | 92 g/kg | 65 g/kg | 0.71 |
| OCCCCOCCCCOCCCCO [C-3, PTMG250, reference compound] | 72 g/kg | 56 g/kg | 0.78 |
